Drawing on patent publication US9428487B2, “Heteroaromatic amides and thioamides as pesticides” (Bayer Intellectual Property GmbH, priority 2008, dated 2016), this text covers chromatographic logP and pest or weed control for 46 compounds.

Where two headings read alike, the source gives them in different places. Some results are limits rather than exact numbers.

Data set [1] can be described thus: Determination of log P values by HPLC on reversed-phase column (formic acid method). Type of data set: physicochemical. As to conditions: reversed-phase C 18, acidic range (pH 3.4), formic acid eluents, 55° C., read-out: logP (HCOOH). The essentials: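 Reversed-phase C18 HPLC per EEC Directive 79/831 Annex V.A8, pH 3.4, acetonitrile/water with formic acid, gradient 10% to 95% acetonitrile in 4.25 min. log P obtained from retention times by linear interpolation between successive unbranched alkan-2-ones (C3–C16) of known log P.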

The subject of data set [2] is green peach aphid (Myzus persicae). Briefly: Myzus test. The format is in vivo. Particulars: read-out: efficacy (aphids killed). In short, it runs like this:
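Active ingredient formulated in acetone/dimethylformamide with alkylaryl polyglycol ether emulsifier, diluted in emulsifier-containing water. Sprayed onto Chinese cabbage leaf discs carrying all aphid stages; % efficacy scored after set time (100% = all aphids dead).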

The mark [3] stands for this setting: reversed-phase HPLC column (C 18), pH 3.4, HPLC.
[4] abbreviates: application rate 500 g/ha, spray on Chinese cabbage leaf slices.

On to `Cc1nc(-c2cccnc2)sc1C(=O)NC(C)(C)CS(C)(=O)=O` [Compound 114], for which the chromatographic logP in data set [1] (setting [3]) was 1.28. Moreover, the pest or weed control at 500 g/ha in data set [2] (setting [4]) was no less than 70%.

As for `CCOC1(NC(=O)c2cnc(-c3cccnc3)s2)CC1` [Compound 88], the chromatographic logP in data set [1] (setting [3]) is 1.31. The pest or weed control at 500 g/ha in data set [2] (setting [4]) is no less than 70%.

In the case of `CCC1(CC)NC(=O)N(NC(=O)c2sc(-c3cccnc3)nc2C)C1=O` [Compound 199], the chromatographic logP in data set [1] (setting [3]) came out at 1.44. In addition, in data set [2] (setting [4]), the pest or weed control at 500 g/ha was no less than 70%.

As for `Cc1nc(-c2cccnc2)sc1C(=O)NCC(F)(F)Cl` [Preparation Example 1, N-(2-chloro-2,2-difluoroethyl)-4-methyl-2-pyridin-3-ylthiazole-5-carboxamide], the chromatographic logP in data set [1] (setting [3]) is 1.84. The pest or weed control at 500 g/ha in data set [2] (in Brassica rapa) is no less than 70%.

Consider `Cc1nc(-c2cccnc2)sc1C(=O)N(C)CC(F)F` [Compound 41], for which the chromatographic logP in data set [1] (setting [3]) turned out to be 1.48. In data set [2] (setting [4]), the pest or weed control at 500 g/ha is no less than 70%.

Turning to `Cc1nc(-c2cccnc2)sc1C(=O)N(C)CC(F)(F)C(F)F` [Compound 43], the chromatographic logP in data set [1] (setting [3]) was found to be 1.69. The pest or weed control at 500 g/ha in data set [2] (setting [4]) is no less than 70%.

For `Cc1nc(-c2cccnc2)sc1C(=O)N(C)CC(F)(F)F` [Compound 42], in data set [1] (setting [3]), the chromatographic logP is 1.81. The pest or weed control at 500 g/ha in data set [2] (setting [4]) was no less than 70%.

In the case of `COCN(CC1COCCO1)C(=O)c1sc(-c2cccnc2)nc1C` (centres unmarked) [Compound 188], the chromatographic logP in data set [1] (setting [3]) came to 1.45. For the same compound, the pest or weed control at 500 g/ha in data set [2] (setting [4]) was no less than 70%.

As to `CN(Cc1cccnc1)C(=O)c1cnc(-c2cccnc2)s1` [Compound 127], the chromatographic logP in data set [1] (setting [3]) is 0.98. The pest or weed control at 500 g/ha in data set [2] (setting [4]) is no less than 70%.

With `CN(C)C(=O)c1nnc(-c2cccnc2)s1` [Preparation Example 8, N,N-dimethyl-5-pyridin-3-yl[1,3,4]thiadiazole-2-carboxamide], the chromatographic logP in data set [1] (HPLC) was determined as 0.95. Besides, the pest or weed control at 500 g/ha in data set [2] (in Brassica rapa) is no less than 70%.

`CCN(OC)C(=O)c1cnc(-c2cccnc2)s1` [Compound 183]: the chromatographic logP in data set [1] (setting [3]) came out at 1.53. Besides, the pest or weed control at 500 g/ha in data set [2] (setting [4]) was no less than 70%.

Turning to `Cc1nc(-c2cccnc2)sc1C(=O)NCC1OCC(C)O1` (centres unmarked) [Compound 62], the chromatographic logP in data set [1] (setting [3]) is 1.34. Besides, the pest or weed control at 500 g/ha in data set [2] (setting [4]) is no less than 70%.

Turning to `Cc1nc(-c2cccnc2)sc1C(=O)N(C)CC1CC1` [Compound 170], the chromatographic logP in data set [1] (setting [3]) was 1.68. For the same compound, in data set [2] (setting [4]), the pest or weed control at 500 g/ha was no less than 70%.

Take `O=C(NCc1ccccn1)c1cnc(-c2cccnc2)s1` [Compound 106]: in data set [1] (setting [3]), the chromatographic logP amounted to 0.61. In data set [2] (setting [4]), the pest or weed control at 500 g/ha is no less than 70%.

For `CCOC1(NC(=O)c2sc(-c3cccnc3)nc2C)CC1` [Compound 144], in data set [1] (setting [3]), the chromatographic logP came out at 1.45. Besides, in data set [2] (setting [4]), the pest or weed control at 500 g/ha is no less than 70%.

Consider `Cc1nc(-c2cccnc2)sc1C(=O)N(C)Cc1ncccn1` [Compound 91], for which the chromatographic logP in data set [1] (setting [3]) was 1.02. Moreover, the pest or weed control at 500 g/ha in data set [2] (setting [4]) is no less than 70%.

On to `Cc1nc(-c2cccnc2)sc1C(=O)NCC(F)(F)C(F)F` [Compound 82], for which the chromatographic logP in data set [1] (setting [3]) turned out to be 1.75. In addition, the pest or weed control at 500 g/ha in data set [2] (setting [4]) was no less than 70%.

For the compound `Cc1nc(-c2cccnc2)sc1C(=O)NCc1ccon1` [Compound 60], the chromatographic logP in data set [1] (setting [3]) is 1.14. Moreover, the pest or weed control at 500 g/ha in data set [2] (setting [4]) was no less than 70%.

Turning to `Cn1nc(-c2cccnc2)cc1C(=O)NCc1ccon1` [Compound 29], the chromatographic logP in data set [1] (setting [3]) is 0.56. Further, the pest or weed control at 500 g/ha in data set [2] (setting [4]) is no less than 70%.

Consider `O=C(N[C@H]1C[C@@H]1F)c1cnc(-c2cccnc2)s1` [Compound 118], for which the chromatographic logP in data set [1] (setting [3]) came out at 1.14. Besides, the pest or weed control at 500 g/ha in data set [2] (setting [4]) was no less than 70%.

Turning to `CCOC(=O)N(C)NC(=O)c1sc(-c2cccnc2)nc1C` [Compound 197], the chromatographic logP in data set [1] (HPLC) worked out at 1.48. The pest or weed control at 500 g/ha in data set [2] (setting [4]) is no less than 70%.

In the case of `Cc1nc(-c2cccnc2)sc1C(=O)N(C)CC1COCCO1` (centres unmarked) [Compound 159], in data set [1] (setting [3]), the chromatographic logP was found to be 1.26. Moreover, the pest or weed control at 500 g/ha in data set [2] (setting [4]) was no less than 70%.

As for `Cc1nc(-c2cccnc2)sc1C(=O)N[C@H]1C[C@@H]1F` [Compound 54], the chromatographic logP in data set [1] (setting [3]) is 1.16. The pest or weed control at 500 g/ha in data set [2] (setting [4]) is no less than 70%.

For the compound `C#CCOC(=O)N(CC(F)(F)F)C(=O)c1sc(-c2cccnc2)nc1C` [Compound 117], in data set [1] (HPLC), the chromatographic logP amounted to 2.63. Moreover, the pest or weed control at 500 g/ha in data set [2] (in Brassica rapa) is no less than 70%.

Consider `COC(=O)C[n+]1cccc(-c2nc(C)c(C(=O)NCC(F)(F)F)s2)c1` [Compound 138], for which, in data set [1] (setting [3]), the chromatographic logP came out at 1.09. Moreover, the pest or weed control at 500 g/ha in data set [2] (setting [4]) is no less than 70%.

Turning to `Cc1nc(-c2cccnc2)sc1C(=O)NC1CCCC(C(F)(F)F)C1` (centres unmarked) [Compound 149], the chromatographic logP in data set [1] (setting [3]) is 2.48. Moreover, the pest or weed control at 500 g/ha in data set [2] (setting [4]) was no less than 70%.

As for `Cc1nc(-c2cncc(Cl)c2)sc1C(=O)NCC(F)(F)F` [Compound 14], in data set [1] (setting [3]), the chromatographic logP was 2.5. The pest or weed control at 500 g/ha in data set [2] (setting [4]) is no less than 70%.

Turning to `CN(C)C(=O)c1cnc(-c2cccnc2)s1` [Compound 46], the chromatographic logP in data set [1] (setting [3]) worked out at 0.91. For the same compound, the pest or weed control at 500 g/ha in data set [2] (setting [4]) is no less than 70%.

For the compound `Cc1nccc(CNC(=O)c2sc(-c3cccnc3)nc2C)n1` [Compound 107], the chromatographic logP in data set [1] (setting [3]) was 1.03. Also, in data set [2] (setting [4]), the pest or weed control at 500 g/ha was no less than 70%.

As to `Cc1nc(-c2cccnc2)sc1C(=O)NC1(C(F)(F)F)CC1` [Compound 34], the chromatographic logP in data set [1] (setting [3]) is 1.84. Moreover, in data set [2] (setting [4]), the pest or weed control at 500 g/ha is no less than 70%.

Take `Cc1nc(-c2cccnc2)sc1C(=O)NCC(C)F` (centres unmarked) [Compound 75]: the chromatographic logP in data set [1] (setting [3]) was found to be 1.34. In addition, the pest or weed control at 500 g/ha in data set [2] (setting [4]) is no less than 70%.

As for `Cc1nc(-c2cccnc2)sc1C(=O)NN1CCOC1=O` [Compound 204], in data set [1] (setting [3]), the chromatographic logP was 1.11. Further, the pest or weed control at 500 g/ha in data set [2] (setting [4]) is no less than 70%.

For the compound `Cc1nc(-c2cccnc2)sc1C(=O)NC1(c2ncccn2)CC1` [Compound 193], in data set [1] (setting [3]), the chromatographic logP stood at 1.21. For the same compound, the pest or weed control at 500 g/ha in data set [2] (setting [4]) was no less than 70%.

Regarding `Cc1nc(-c2cccnc2)sc1C(=O)NCC1CCCCO1` (centres unmarked) [Compound 104], the chromatographic logP in data set [1] (setting [3]) came to 1.64. For the same compound, in data set [2] (setting [4]), the pest or weed control at 500 g/ha is no less than 70%.

With `CSCC(C)(C)N(C)C(=O)c1sc(-c2cccnc2)nc1C` [Compound 45], the chromatographic logP in data set [1] (setting [3]) was 2.21. Moreover, the pest or weed control at 500 g/ha in data set [2] (setting [4]) is no less than 70%.

Take `CCN(C)C(=O)c1cnc(-c2cccnc2)s1` [Compound 61]: the chromatographic logP in data set [1] (setting [3]) turned out to be 1.23. In data set [2] (setting [4]), the pest or weed control at 500 g/ha is no less than 70%.

Consider `Cn1nc(-c2cccnc2)cc1C(=O)NCC(C)(F)F` [Compound 24], for which, in data set [1] (setting [3]), the chromatographic logP worked out at 0.91. In addition, the pest or weed control at 500 g/ha in data set [2] (setting [4]) is no less than 70%.

As to `Cc1nc(C)n(C(C)CNC(=O)c2sc(-c3cccnc3)nc2C)n1` (centres unmarked) [Compound 165], the chromatographic logP in data set [1] (setting [3]) worked out at 1.06. Also, the pest or weed control at 500 g/ha in data set [2] (setting [4]) is no less than 70%.

Take `Cc1nc(-c2cccnc2)sc1C(=O)N(C)C(C)c1ccccn1` (centres unmarked) [Compound 111]: in data set [1] (setting [3]), the chromatographic logP came out at 1.45. For the same compound, the pest or weed control at 500 g/ha in data set [2] (setting [4]) is no less than 70%.

For the compound `CN(Cc1ccccn1)C(=O)c1cnc(-c2cccnc2)s1` [Compound 134], the chromatographic logP in data set [1] (setting [3]) is 0.41. In data set [2] (setting [4]), the pest or weed control at 500 g/ha is no less than 70%.

As to `CCNC(=O)c1cnc(-c2cccnc2)s1` [Compound 55], the chromatographic logP in data set [1] (setting [3]) was determined as 1.03. In addition, in data set [2] (setting [4]), the pest or weed control at 500 g/ha is no less than 70%.

On to `Cc1nc(-c2cccnc2)sc1C(=O)NC(C)C1CCCO1` (centres unmarked) [Compound 195], for which, in data set [1] (setting [3]), the chromatographic logP worked out at 1.5. Further, the pest or weed control at 500 g/ha in data set [2] (setting [4]) is no less than 70%.

Consider `CN(CC(F)(F)F)C(=O)c1cnc(-c2cccnc2)s1` [Compound 192], for which the chromatographic logP in data set [1] (setting [3]) was determined as 1.59. Also, in data set [2] (setting [4]), the pest or weed control at 500 g/ha was no less than 70%.

As to `O=C(NCC(F)(F)F)c1cc(-c2cccnc2)n[nH]1` [Compound 33], the chromatographic logP in data set [1] (setting [3]) stood at 0.72. Also, the pest or weed control at 500 g/ha in data set [2] (setting [4]) is no less than 70%.

Consider `Cn1nc(-c2cccnc2)cc1C(=O)NCc1ncccn1` [Compound 28], for which the chromatographic logP in data set [1] (setting [3]) is 0.25. The pest or weed control at 500 g/ha in data set [2] (setting [4]) was no less than 70%.

Turning to `O=C(NC(C(F)(F)F)C(F)(F)F)c1cnc(-c2cccnc2)s1` [Compound 171], the chromatographic logP in data set [1] (setting [3]) came to 2.3. Also, in data set [2] (setting [4]), the pest or weed control at 500 g/ha was no less than 70%.
